Measured values reported in ChEMBL document CHEMBL3407340, “Synthesis, radiolabeling and evaluation of novel 4-oxo-quinoline derivatives as PET tracers for imaging cannabinoid type 2 receptor” (Eur J Med Chem, 2015).
pKi: −log10 of the molar value. Calls of active or inactive are those of the source. The calls are words filed in the database; no cut-off is given here.

Key:
Cannabinoid receptor 1 = Cannabinoid receptor 1 (Homo sapiens, UniProt P21554); assay: Displacement of [3H]-CP-55940 from human CB1 receptor transfected in CHOK1 cells after 90 mins by liquid scintillation counting analysis; type: cell-based, CHO-K1
[1] = target: Cannabinoid receptor 2 (Mus musculus) (UniProt P47936); assay: Binding affinity to CB2 receptor in mouse spleen at 0.4 nM after 15 mins by autoradiography in presence of GW405833; settings: tested as the 11C-labelled form
[2] = target: Cannabinoid receptor 2 (Rattus norvegicus) (UniProt Q9QZN9); assay: Binding affinity to CB2 receptor in rat spleen at 0.4 nM after 15 mins by autoradiography in presence of GW405833; type: tissue-based; settings: tested as the 11C-labelled form
Cannabinoid receptor 2 (Rattus norvegicus), sequence (Q9QZN9 whole entry): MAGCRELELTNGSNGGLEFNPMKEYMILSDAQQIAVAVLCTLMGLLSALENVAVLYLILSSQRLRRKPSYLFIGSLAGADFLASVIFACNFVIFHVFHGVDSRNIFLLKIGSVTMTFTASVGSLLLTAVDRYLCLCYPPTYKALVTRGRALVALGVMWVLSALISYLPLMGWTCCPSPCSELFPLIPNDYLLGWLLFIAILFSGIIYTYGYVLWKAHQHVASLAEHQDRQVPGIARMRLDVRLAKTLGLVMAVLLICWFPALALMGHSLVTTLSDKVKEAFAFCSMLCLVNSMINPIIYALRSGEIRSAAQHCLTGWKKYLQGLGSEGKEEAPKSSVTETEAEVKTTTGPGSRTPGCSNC

Cannabinoid receptor 1, sequence (P21554 whole entry): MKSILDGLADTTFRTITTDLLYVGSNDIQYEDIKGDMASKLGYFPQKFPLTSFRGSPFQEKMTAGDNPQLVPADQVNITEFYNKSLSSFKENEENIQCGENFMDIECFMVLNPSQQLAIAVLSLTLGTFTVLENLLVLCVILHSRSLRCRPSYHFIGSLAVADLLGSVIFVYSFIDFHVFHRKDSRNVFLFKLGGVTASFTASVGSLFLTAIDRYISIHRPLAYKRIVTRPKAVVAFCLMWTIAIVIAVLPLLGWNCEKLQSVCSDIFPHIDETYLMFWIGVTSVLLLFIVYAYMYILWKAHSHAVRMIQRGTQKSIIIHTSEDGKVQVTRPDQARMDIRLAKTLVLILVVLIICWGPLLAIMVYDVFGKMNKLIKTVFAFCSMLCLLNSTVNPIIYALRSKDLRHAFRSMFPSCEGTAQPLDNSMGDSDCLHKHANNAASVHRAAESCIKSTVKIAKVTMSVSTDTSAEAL
Cannabinoid receptor 2 (Mus musculus), sequence (P47936 whole entry): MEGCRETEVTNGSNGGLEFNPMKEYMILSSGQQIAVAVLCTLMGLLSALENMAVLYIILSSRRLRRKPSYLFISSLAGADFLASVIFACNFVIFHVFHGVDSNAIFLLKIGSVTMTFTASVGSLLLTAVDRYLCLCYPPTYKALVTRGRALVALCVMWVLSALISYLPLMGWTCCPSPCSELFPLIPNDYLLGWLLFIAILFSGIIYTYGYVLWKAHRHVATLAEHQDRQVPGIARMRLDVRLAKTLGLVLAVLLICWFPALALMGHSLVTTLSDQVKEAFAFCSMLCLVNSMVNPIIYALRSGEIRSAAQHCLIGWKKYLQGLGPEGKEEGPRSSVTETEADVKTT

CCCCn1cc(C(=O)NC(C)(C)C)c(=O)c2cccc(OC)c21
pKi (Cannabinoid receptor 1): < 5.00

CCOCCn1cc(C(=O)NC23CC4CC(CC(C4)C2)C3)c(=O)c2cccc(OC)c21
pKi (Cannabinoid receptor 1): < 5.00 | Activity [1]: inactive | Activity [2]: inactive
